What was measured:
[1] = reported in literature (ref. 13); cited from earlier work
[2] = system: Arabidopsis thaliana seedlings (root apical meristem); experiment: Root growth rate of A. thaliana seedlings during OEIP delivery; type: in vivo; conditions: for effect on root growth rate: OEIP delivery, 60 min, compared with non-targeted seedlings
Text: The dPG-based OEIPs were used for in vivo experiments on a highly accessible model plant system suitable for live-cell imaging in the intact organism. Specifically, the apical root meristem and early elongation zone of four-day-old Arabidoposis thaliana seedlings positioned on agar gel were targeted for delivery of IAA via the OEIP. Root tips were monitored using a horizontally oriented Nikon AZ100 spectral macro-confocal laser-scanning microscope system schematically illustrated in FIG. 3a. In this arrangement, seedlings were positioned and imaged vertically.
As a negative control, benzoic acid^15 was delivered by the OEIP device, operated in the same configuration.
(§1) To this end, seeds of both genotypes and wild-type Col-0 were surface sterilized with 70% ethanol for 1 min, incubated in pool cleaner (Biltema, Sweden; one tablet per 2000 ml H2O) for 12 min, and washed four times with sterile, distilled water (dH2O). After 3 days at 4° C. in the dark, seeds were plated and grown on ½ Murashige and Skoog (MS) (Duchefa Biochemie, Haarlem, The Netherlands), 0.5 g/L 2-(N-morpholino)ethanesulfonic acid (MES, Sigma-Aldrich), 1% sucrose, 0.7% plant agar (Duchefa) growth medium plates (120×120 mm square petri-dishes; Gosselin) at pH 5.6 in vertical orientation at 23° C. with 16 h of light per day. 12 h prior to the start of the experiments, 4 days post-germination (dpg) seedlings were positioned onto fresh plates of identical MS media composition additionally supplemented with 0.01 M KCl.
Immediately prior to the experiments, the OEIPs were operated in a target solution of 10^−5 M KCl(aq), and the OEIP device tip was kept from drying excessively during sample loading and OEIP positioning. A Keithley 2612b SourceMeter (Keithley Instruments Inc, Cleveland, Ohio, USA) and custom LabVIEW (National Instruments Corporation, Austin, Tex., USA) software was use to source current and record voltage. The OEIP device was turned on immediately prior to the first imaging sequence and operated at a constant electrical current of 1 μA. For these experiments, the OEIP delivery tip was submerged in the MS media in close proximity (100-200 μm) to the root epidermal tissue (FIG. 3b,c) and was held at a fixed position in the growth MS media for the duration of each trial.

[3] = system: DII-Venus auxin-response reporter; experiment: DII-Venus fluorescent auxin-response reporter seedlings, OEIP delivery; type: in vivo, Arabidopsis thaliana; conditions: for effect on DII-Venus fluorescence intensity: OEIP delivery to root tip, signal falls in presence of auxin
Text: The DII-Venus reporter is characterized by absence or reduction in fluorescent signal intensity in the presence of auxin or increasing auxin levels, respectively. Conversely, in DR5, the presence or gain of fluorescent signal intensity indicates presence or increase of auxin concentrations, respectively. The relative auxin abundance is visualized faster by DII-Venus than by DR5^15, because the DII-Venus signal relies on a protein degradation mechanism rather than the slower transcriptional and translational production mechanisms of DR5.
Using DII-Venus seedlings, the fluorescent signal intensity was monitored and onset of strong fluorescence reduction was observed between 30 to 60 min (FIG. 5a,b).
as §1, with “12 h prior to the start of the experiments, 4 days post-germination (dpg) seedlings were positioned onto fresh plates of identical MS media composition additionally supplemented with 0.01 M KCl.” left out
A custom reoriented macro confocal laser-scanning microscope with a vertical stage was used to acquire images (Bergman-Labora, Sweden). The macro confocal consisted of a horizontally placed AZ100 macroscope (Nikon, Japan) adapted with a specially built XYZ motorized stage (Prior Scientific fitted by Bergman-Labora) and supplied with diascopic white light and episcopic fluorescence light (Nikon). […] Excitation was at 488 nm and emission detected with a 525/50 filter. DII Venus fluorescence intensities from a single layer were normalized to initial intensity, averaged and compared (Standard deviation of the mean). […]

[4] = system: DR5rev:GFP auxin-response reporter; experiment: DR5rev:GFP fluorescent auxin-response reporter seedlings, OEIP delivery to elongation zone; type: in vivo, Arabidopsis thaliana; conditions: root elongation zone
Text: A custom reoriented macro confocal laser-scanning microscope with a vertical stage was used to acquire images (Bergman-Labora, Sweden). The macro confocal consisted of a horizontally placed AZ100 macroscope (Nikon, Japan) adapted with a specially built XYZ motorized stage (Prior Scientific fitted by Bergman-Labora) and supplied with diascopic white light and episcopic fluorescence light (Nikon). A climate enclosure with passive humidification was designed to surround the stage area to keep plants in a humid, dark environment. The AZ100 macroscope was connected to a C2+ confocal laser scanning system (Nikon) equipped with lasers for 405 nm, 457/488/514 nm and 561 nm excitation and a transmitted light detector. […] Excitation was at 488 nm and emission detected with a 525/50 filter. DII Venus fluorescence intensities from a single layer were normalized to initial intensity, averaged and compared (Standard deviation of the mean). […]

| Compound | activity in previous bioassays [1] | effect on root growth rate [2] | effect on DII-Venus fluorescence intensity [3] | effect on DR5 reporter fluorescent intensity [4] | root growth rate after 60 min of delivery ([2]; OEIP delivery at 1 μA, average of 5 trials, after 60 min) [μm min^−1] | root growth rate before the decrease ([2]; OEIP delivery at 1 μA, average of 5 trials, initial rate) [μm min^−1] | onset of strong fluorescence reduction ([3]; DII-Venus seedlings, OEIP delivery) [min] | onset of fluorescence in plant tissues [4] [h] |
| --- | --- | --- | --- | --- | --- | --- | --- | --- |
| O=C(O)CC1C(=O)Nc2ccccc21 (centres unmarked) [oxIAA, 2-oxindole-3-acetic acid] | inactive | – | – | – | – | – | – | – |
| O=C(O)c1ccccc1 [benzoic acid] | – | maintained their growth rates | preserved their fluorescence | did not display alterations in fluorescent intensity | – | – | – | – |
| O=C(O)Cc1c[nH]c2ccccc12 [IAA, indole-3-acetic acid] | – | rapid decrease in growth rate | strong and significant decrease in fluorescence | signal continued to increase between 2 and 3 hours | 2.4±0.7 | 4.7±1.0 | 30 to 60 | 1 |

— patent US11357971B2, “Ion pump with hyperbranched polymers” (OBOE IPR AB, priority 2016, dated 2022)
